Data from PubChem BioAssay (NCI).
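1) Cells in 96-well plates. 2) Compound, 48 h, 5 concentrations. 3) Linear interpolation between surrounding doses. 4) Unreached endpoint = highest concentration. Abbreviation: GI50, concentration required for 50% inhibition of growth. TGI is the concentration that stops growth completely.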

How the values were obtained:
Experiment in all cases: NCI anticancer screen, dose series, 48 h
OVCAR-8 ovarian = test system: OVCAR-8 ovarian
K-562 leukemia = test system: K-562 leukemia
HOP-62 NSCLC = test system: HOP-62 NSCLC
SF-539 CNS = test system: SF-539 CNS
HCC-2998 colon = test system: HCC-2998 colon
HCT-116 colon = test system: HCT-116 colon
U251 CNS = test system: U251 CNS
HL-60(TB) leukemia = test system: HL-60(TB) leukemia
SK-MEL-5 melanoma = test system: SK-MEL-5 melanoma
HOP-92 NSCLC = test system: HOP-92 NSCLC

Row | Structure (SMILES) | TGI (OVCAR-8 ovarian) | TGI (K-562 leukemia) | TGI (HOP-62 NSCLC) | TGI (SF-539 CNS) | TGI (HCC-2998 colon) | TGI (HCT-116 colon) | TGI (U251 CNS) | TGI (HL-60(TB) leukemia) | TGI (SK-MEL-5 melanoma) | TGI (HOP-92 NSCLC) | GI50 (OVCAR-8 ovarian) | GI50 (K-562 leukemia) | GI50 (HOP-62 NSCLC) | GI50 (SF-539 CNS) | GI50 (HOP-92 NSCLC) | GI50 (HCT-116 colon) | GI50 (U251 CNS) | GI50 (HL-60(TB) leukemia) | GI50 (SK-MEL-5 melanoma) | GI50 (HCC-2998 colon)
1 | C=CCC12CCC(=O)C=C1CCC1(C2)OCCO1 (centres undefined) | > 100 µM | > 100 µM | > 100 µM | > 100 µM | > 100 µM | > 100 µM | > 100 µM | > 100 µM | > 100 µM | – | – | – | – | – | – | – | – | – | – | –
2 | OCCN(CCO)c1cccc(N(CCO)CCO)c1 | > 100 µM | > 100 µM | > 100 µM | – | – | > 100 µM | > 100 µM | > 100 µM | > 100 µM | > 100 µM | – | – | – | – | – | – | – | – | – | –
3 | Nc1ccc(-c2nc3ccccc3[nH]2)c(O)c1 | > 100 µM | > 100 µM | > 100 µM | 53.1 µM | – | 40.7 µM | > 100 µM | > 100 µM | 72.3 µM | 45.2 µM | 42.3 µM | 31.5 µM | 60.5 µM | 17.3 µM | 5.82 µM | 16.3 µM | 60.3 µM | 40.4 µM | 21.3 µM | –
4 | COc1ccc(Nc2ncccc2/C=C/C(=O)c2cc(OC)c(OC)c(OC)c2)cc1 | 4.22 µM | 3.51 µM | 3.75 µM | 5.15 µM | 3.09 µM | 2.28 µM | 2.52 µM | – | 2.68 µM | 4.28 µM | 1.56 µM | 0.783 µM | 1.78 µM | 2.04 µM | 1.59 µM | 1.02 µM | 1.27 µM | – | 1.39 µM | 1.68 µM
5 | O=C(Cn1c(=O)c(-c2ccccc2)nc2ccccc21)c1cccnc1 | > 100 µM | > 100 µM | > 100 µM | – | > 100 µM | > 100 µM | > 100 µM | – | > 100 µM | > 100 µM | > 100 µM | > 100 µM | > 100 µM | – | 27.7 µM | > 100 µM | > 100 µM | – | > 100 µM | > 100 µM
6 | CS(=O)(=O)N(CCC#N)c1ccc(/C=N/NC(=O)CC(=O)Nc2cccc(Cl)c2)cc1 | > 100 µM | > 100 µM | > 100 µM | > 100 µM | > 100 µM | > 100 µM | > 100 µM | – | > 100 µM | – | – | – | – | – | – | – | – | – | – | –
7 | O=Nc1c(-c2cccc([N+](=O)[O-])c2)nc2cnccn12 | 53.8 µM | 49.2 µM | 90.1 µM | 59.1 µM | – | 18.8 µM | 42.4 µM | > 100 µM | > 100 µM | 38.4 µM | – | – | – | – | – | – | – | – | – | –
8 | O=C1c2ccccc2-c2nccc3cc(Cl)nc1c23 | – | 5.24 µM | 18.6 µM | 24.7 µM | > 100 µM | 2.41 µM | 10.4 µM | > 100 µM | 2.61 µM | 5.64 µM | – | 0.665 µM | 2.89 µM | 4.88 µM | 1.56 µM | 1.18 µM | 2.43 µM | 1.97 µM | 1.34 µM | > 48.5 µM
9 | CCON=C1C(C)(C)C(C)(C)C(C)(C)C1(C)C | > 100 µM | > 100 µM | > 100 µM | > 100 µM | – | > 100 µM | > 100 µM | > 100 µM | > 100 µM | > 100 µM | – | – | – | – | – | – | – | – | – | –
10 | N#CCCN(CCC#N)c1ccc(/C=C2\N=C(COc3ccc(Cl)cc3Cl)OC2=O)cc1 | > 100 µM | > 100 µM | > 100 µM | > 100 µM | > 100 µM | > 100 µM | > 100 µM | > 100 µM | > 100 µM | – | – | – | – | – | – | – | – | – | – | –
11 | O=CN1N=C(c2ccc(Nc3ccnc4cc(Cl)ccc34)cc2)CC1c1ccccc1 (centres undefined) | > 100 µM | – | 76.5 µM | 18.7 µM | 29.5 µM | 18.5 µM | 19.2 µM | 6.21 µM | 3.77 µM | > 100 µM | 4.53 µM | – | 5.26 µM | 4.57 µM | 4.28 µM | 3.58 µM | 3.12 µM | 2.66 µM | 1.38 µM | 3.5 µM
12 | Cc1cc2c(cc1C)[n+](=O)c(C(=O)/C=C/c1ccc(Cl)cc1)c(C)n2[O-] | 84.2 µM | > 100 µM | 68.7 µM | 47.3 µM | 46.1 µM | – | 67.9 µM | > 100 µM | 58.7 µM | > 100 µM | – | – | – | – | – | – | – | – | – | –
13 | O=c1[nH]c(-c2ccccc2)nc2ccc(Cl)cc12 | > 100 µM | > 100 µM | – | > 100 µM | > 100 µM | > 100 µM | > 100 µM | – | – | 84.1 µM | – | – | – | – | – | – | – | – | – | –
14 | NS(=O)(=O)c1ccc(C2C3=C(CCCC3=O)OC3=C2C(=O)c2ccccc2C3=O)cc1 (centres undefined) | – | 2.35 µM | 2.91 µM | 0.761 µM | 3.11 µM | 0.725 µM | 1.05 µM | 0.559 µM | 2.43 µM | 2.48 µM | – | 0.46 µM | 1.49 µM | 0.277 µM | 0.847 µM | 0.253 µM | 0.318 µM | 0.254 µM | 1.18 µM | 1.47 µM
15 | NC1CCCCC1N.O=C([O-])P(=O)([O-])[O-].[Na+].[Pt+4] (centres undefined) | > 100 µM | > 100 µM | > 100 µM | > 100 µM | – | > 100 µM | > 100 µM | > 100 µM | – | – | 98.2 µM | > 100 µM | > 100 µM | > 100 µM | – | 47.6 µM | > 100 µM | 75.9 µM | – | –
16 | O=C(CC1(O)C(=O)Nc2ccc(Br)cc21)c1ccc(Cl)cc1 (centres undefined) | > 100 µM | > 100 µM | > 100 µM | > 100 µM | – | > 100 µM | 95.1 µM | – | > 100 µM | 87.6 µM | – | – | – | – | – | – | – | – | – | –
17 | COc1cccc2c1C1(O)C2CCCC12OCCCO2 (centres undefined) | > 100 µM | > 100 µM | > 100 µM | > 100 µM | > 100 µM | > 100 µM | > 100 µM | > 100 µM | > 100 µM | – | – | – | – | – | – | – | – | – | – | –
18 | c1cc(C2CCCCC2)ccc1OCCCCCCN1CCNCC1 | – | 3.11 µM | – | 3.25 µM | 3.76 µM | – | 3.17 µM | 3.32 µM | 3.26 µM | 5.23 µM | – | 1.46 µM | – | 1.78 µM | 1.55 µM | – | 1.63 µM | 1.54 µM | 1.78 µM | 2.14 µM
